Measured values taken from ChEMBL document CHEMBL1201862, “PubChem BioAssay data set” (2004).
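Grown in 96-well plates, cells were treated for 48 hours with each compound at five concentrations. Insufficient inhibition: endpoint recorded as highest concentration tested. GI50 = concentration required for 50% inhibition of growth.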 The source made the active and inactive calls. No stated cut-off is given here; in the data, active = GI50 up to about 1.1 µM and inactive = higher.

Key:
Test in all cases: inhibition of tumour cell growth, NCI panel, 48 h
[1] = system: 786-0
[2] = system: A498
[3] = system: ACHN
[4] = system: CCRF-CEM
[5] = system: COLO 205
[6] = system: DU-145
[7] = system: HCC 2998
[8] = system: HCT-116
[9] = system: HOP-62
[10] = system: HT-29
[11] = system: Hs-578T
[12] = system: K562
[13] = system: KM12
[14] = system: MCF7
[15] = system: NCI-H460
[16] = system: SF-295
[17] = system: SK-MEL-2
[18] = system: SK-MEL-5
[19] = system: SW-620
[20] = system: UACC-62

SMILES	GI50 [1]	GI50 [2]	GI50 [3]	GI50 [4]	GI50 [5]	GI50 [6]	GI50 [7]	GI50 [8]	GI50 [9]	GI50 [10]	GI50 [11]	GI50 [12]	GI50 [13]	GI50 [14]	GI50 [15]	GI50 [16]	GI50 [17]	GI50 [18]	GI50 [19]	GI50 [20]
C=C1c2nc3ccccc3n2C=C(c2ccc(OC)cc2)N1c1ccc(OCCN2CCOCC2)cc1	36.9 µM (inactive)	66.8 µM (inactive)	46.9 µM (inactive)	3.73 µM (inactive)	10.8 µM (inactive)	> 54.8 µM (inactive)	86.3 µM (inactive)	21.9 µM (inactive)	> 100 µM (inactive)	6.24 µM (inactive)	4.7 µM (inactive)	7.62 µM (inactive)	15.8 µM (inactive)	12.3 µM (inactive)	3.72 µM (inactive)	41.7 µM (inactive)	18.5 µM (inactive)	8.45 µM (inactive)	44.3 µM (inactive)	20.4 µM (inactive)
Cc1ccc(S(=O)(=O)N/N=C2\C(=O)Nc3cc(O)c(C(=O)O)cc32)cc1	> 100 µM (inactive)	> 100 µM (inactive)	> 100 µM (inactive)	> 100 µM (inactive)	> 100 µM (inactive)	> 100 µM (inactive)	> 100 µM (inactive)	> 100 µM (inactive)	> 100 µM (inactive)	> 100 µM (inactive)	> 100 µM (inactive)	> 100 µM (inactive)	> 100 µM (inactive)	> 100 µM (inactive)	> 100 µM (inactive)	> 100 µM (inactive)	> 100 µM (inactive)	> 100 µM (inactive)	> 100 µM (inactive)	> 100 µM (inactive)
C=C1C(=O)C23C(O)C1CC[C@H]2C12CCCC(C)(COC(C)=O)[C@H]1[C@H](O)[C@]3(O)OC2 (stereo not given in full)	0.966 µM (active)	2.32 µM (inactive)	1.51 µM (inactive)	0.211 µM (active)	1.46 µM (inactive)	4.3 µM (inactive)	1.85 µM (inactive)	1.06 µM (active)	3.09 µM (inactive)	1.8 µM (inactive)	2.77 µM (inactive)	0.128 µM (active)	2.37 µM (inactive)	1.78 µM (inactive)	2.24 µM (inactive)	0.891 µM (active)	1.85 µM (inactive)	1.72 µM (inactive)	0.519 µM (active)	1.58 µM (inactive)
CCOC(=O)Cc1[nH]c(C(=O)c2ccccc2)cc1C(=O)c1ccccc1	> 10 µM (inactive)	36.8 µM (inactive)	> 10 µM (inactive)	> 10 µM (inactive)	21.7 µM (inactive)	> 10 µM (inactive)	50.4 µM (inactive)	17.5 µM (inactive)	23.8 µM (inactive)	> 10 µM (inactive)	> 100 µM (inactive)	> 10 µM (inactive)	48.9 µM (inactive)	> 10 µM (inactive)	71.8 µM (inactive)	> 10 µM (inactive)	39 µM (inactive)	41.8 µM (inactive)	> 100 µM (inactive)	> 100 µM (inactive)
COc1cccc(/C=N/n2c(Cc3ccccc3)n[nH]c2=O)c1	50.1 µM (inactive)	> 100 µM (inactive)	> 100 µM (inactive)	> 100 µM (inactive)	> 100 µM (inactive)	> 100 µM (inactive)	> 100 µM (inactive)	> 100 µM (inactive)	42.9 µM (inactive)	> 35.4 µM (inactive)	26.7 µM (inactive)	> 100 µM (inactive)	> 76.2 µM (inactive)	> 100 µM (inactive)	> 100 µM (inactive)	38.5 µM (inactive)	> 100 µM (inactive)	33.9 µM (inactive)	> 100 µM (inactive)	> 100 µM (inactive)
COc1cccc(C2c3cc4c(cc3OC(NNC(N)=O)C2C)OCO4)c1O (stereo not given)	1.52 µM (inactive)	0.83 µM (active)	3.47 µM (inactive)	0.929 µM (active)	1.78 µM (inactive)	4.25 µM (inactive)	1.8 µM (inactive)	0.834 µM (active)	1.35 µM (inactive)	1.7 µM (inactive)	0.741 µM (active)	0.516 µM (active)	0.731 µM (active)	0.491 µM (active)	0.951 µM (active)	0.593 µM (active)	0.703 µM (active)	0.345 µM (active)	0.569 µM (active)	2.54 µM (inactive)
C=C(C)c1cc(C(C)(C)C)cc(C(=C)C)c1S(C)(=O)=O	> 100 µM (inactive)	> 100 µM (inactive)	> 100 µM (inactive)	> 100 µM (inactive)	0.596 µM (active)	> 100 µM (inactive)	> 100 µM (inactive)	> 100 µM (inactive)	> 100 µM (inactive)	> 100 µM (inactive)	> 100 µM (inactive)	> 100 µM (inactive)	> 100 µM (inactive)	> 100 µM (inactive)	> 100 µM (inactive)	> 100 µM (inactive)	> 100 µM (inactive)	> 100 µM (inactive)	> 100 µM (inactive)	> 100 µM (inactive)
